US9655887B2, “Pharmaceutical composition and the use thereof, and application regime of said pharmaceutical composition for on-demand contraception” (BAYER PHARMA AKTIENGESELLSCHAFT, priority 2013, dated 2017)
Marks after values point to notes of the source that are not given here. One block for each compound: values may come before it.

Columns and labels:
[1] = target: EP2 subtype of the human PGE2 receptor (hEP2 receptor) (Homo sapiens, UniProt P43116); test: cAMP antagonism test, human prostaglandin E2 (subtype EP2) receptor signal; type: cell-based
In short: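 Cells (625000 cells/ml, mixed with cAMP-d2) were preincubated 20 min at RT with compound ([…]). They were then stimulated 60 min at RT with a 3× PGE2 solution (1.5 nM) in PBS-IBMX and lysed for 20 min. cAMP was read by HTRF as the 665/620 nm ratio ×10000, with antagonism seen as a rise in FRET signal.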

[2] = system: fertility of the female rat; test: Single administration of EP2 receptor antagonists and COX inhibitors alone or in combination, fertility of the rat (implantation sites); type: in vivo, female Han Wistar rats
Description: 6. Effect of a Single Administration of EP2 Receptor Antagonists and COX Inhibitors Alone or in Combination on the Fertility of the Rat
In the experiments below, female Han Wistar rats having a weight of 200-270 g were used. The animals were kept in Makrolon cages in rooms with controlled lighting (12 hours of darkness; 12 hours of light), fed with a standard diet and provided with water ad libitum.
EP2 receptor antagonists were dissolved in benzyl benzoate/castor oil (1+4 v/v), and the dose was administered in a volume of 1 ml/kg of body weight s.c. Optionally, EP2 receptor antagonists were also administered orally in the same vehicle as the COX inhibitors (see below). […]
The COX inhibitors were suspended in a carrier liquid (85 mg of Myrj®53 polyoxyl(50)stearate; CAS No. 9004-99-3) in 100 ml of 0.9% w/v NaCl solution), and the dose corresponding to the treatment group was administered in a volume of 2 ml/kg of body weight.
Prior to the start of the experiment, two cycles were observed using vaginal swabs. Only animals having a regular 4-day cycle were used in the experiment. The animals were randomized to the treatment groups.
The animals were treated once in the proestrus, the day in the cycle when the LH peak occurs in the evening, with the test substances either alone or in combination. On the evening of the proestrus, the female animals mated with a male rat. Successive mating was confirmed by detection of vaginal sperms in the vaginal swab the next morning. The effect on fertility was determined 9-15 days after mating by the number of implantation sites of the animals. […]

[3] = Table 6.4, single administration in proestrus, E16 4 mg/animal, 17:00, data of n = 4 animals
[4] = Table 6.5, single administration in proestrus, E16 0.25 mg/animal, 17:00
[5] = Table 6.5, single administration in proestrus, E16 0.5 mg/animal, 17:00
[6] = Table 6.5, single administration in proestrus, E16 1 mg/animal, 17:00
[7] = Table 6.5, single administration in proestrus, E16 2 mg/animal, 17:00, data of n = 4 animals
[8] = Table 6.5, single administration in proestrus, E16 4 mg/animal, 17:00
[9] = proestrus, oral administration of EP2 receptor antagonist 2 mg/animal, divided to 16:00 and 17:00
[10] = single administration in proestrus, E16 1 mg/animal, 16:00
[11] = single administration in proestrus, E16 2 mg/animal, 16:00
[12] = single administration in proestrus, E16 4 mg/animal, 7:00
[13] = single administration in proestrus, E16 4 mg/animal, 13:00, data of n = 5 animals
[14] = single administration in proestrus, E16 4 mg/animal, 16:00
[15] = single administration in proestrus, E16 8 mg/animal, 16:00, data of n = 5 animals
[16] = Table 6.4, single administration in proestrus, Meloxicam 0.25 mg/animal, 17:00, data of n = 5 animals
[17] = Table 6.4, single administration in proestrus, Meloxicam 0.5 mg/animal, 17:00
[18] = Table 6.4, single administration in proestrus, Meloxicam 1 mg/animal, 17:00
[19] = Table 6.4, single administration in proestrus, Meloxicam 2 mg/animal, 17:00, data of n = 5 animals
[20] = Table 6.5, single administration in proestrus, Meloxicam 2 mg/animal, 17:00, data of n = 5 animals
[21] = single administration in proestrus, E161 2 mg/animal, 18:00

Chain of EP2 subtype of the human PGE2 receptor (hEP2 receptor) (P43116 whole entry): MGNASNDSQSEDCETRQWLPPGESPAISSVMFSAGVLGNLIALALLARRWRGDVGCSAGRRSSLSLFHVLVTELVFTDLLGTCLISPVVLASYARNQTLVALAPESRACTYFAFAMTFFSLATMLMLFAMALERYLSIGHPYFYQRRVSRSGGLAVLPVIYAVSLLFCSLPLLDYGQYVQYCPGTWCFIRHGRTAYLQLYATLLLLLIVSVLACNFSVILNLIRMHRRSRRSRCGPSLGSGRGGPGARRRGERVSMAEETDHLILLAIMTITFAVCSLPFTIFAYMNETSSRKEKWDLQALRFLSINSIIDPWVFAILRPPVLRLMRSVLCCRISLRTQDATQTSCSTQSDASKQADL

IC50 [1]: > 50 nM
Structure (SMILES): COCCNC(=O)c1ccc2nn(CC3CCN(C(=O)c4ccc(Oc5ccc(C(F)(F)F)cc5)cc4)CC3)cc2c1C [Example E16, N-(2-methoxyethyl)-4-methyl-2-[(1-{4-[4-(trifluoromethyl)phenoxy]benzoyl}piperidin-4-yl)methyl]-2H-indazole-5-carboxamide]
Absolute implantations number of 6 animals [2, 3]: 22** | Implantations per animal (mean ± SD) [2, 3]: 5.5 ± 5.4 | Absolute implantations number of 6 animals [2, 4]: 78 | Implantations per animal (mean ± SD) [2, 4]: 13 ± 2.3 | Absolute implantations number of 6 animals [2, 5]: 60 | Implantations per animal (mean ± SD) [2, 5]: 10 ± 2.8 | Absolute implantations number of 6 animals [2, 6]: 42 | Implantations per animal (mean ± SD) [2, 6]: 7 ± 5.4 | Absolute implantations number of 6 animals [2, 7]: 30** | Implantations per animal (mean ± SD) [2, 7]: 7.5 ± 1.7 | Absolute implantations number of 6 animals [2, 8]: 32 | Implantations per animal (mean ± SD) [2, 8]: 5.3 ± 4.5 | Absolute implantations number of 6 animals [2, 9]: 63 | Implantations per animal (mean ± SD) [2, 9]: 10.5 ± 1.5 | Absolute implantations number of 6 animals [2, 10]: 62 | Implantations per animal (mean ± SD) [2, 10]: 10.3 ± 2.5 | Absolute implantations number of 6 animals [2, 11]: 71 | Implantations per animal (mean ± SD) [2, 11]: 11.8 ± 2.1 | Absolute implantations number of 6 animals [2, 12]: 54 | Implantations per animal (mean ± SD) [2, 12]: 9.0 ± 3.4 | Absolute implantations number of 6 animals [2, 13]: 49* | Implantations per animal (mean ± SD) [2, 13]: 8.2 ± 3.1 | Absolute implantations number of 6 animals [2, 14]: 50 | Implantations per animal (mean ± SD) [2, 14]: 8.3 ± 3.4 | Absolute implantations number of 6 animals [2, 15]: 43* | Implantations per animal (mean ± SD) [2, 15]: 8.6 ± 2.8

Structure (SMILES): Cc1cnc(NC(=O)C2=C(O)c3ccccc3S(=O)(=O)N2C)s1 [Meloxicam, meloxicam, reference compound]
Absolute implantations number of 6 animals [2, 16]: 32* | Implantations per animal (mean ± SD) [2, 16]: 6.4 ± 5.9 | Absolute implantations number of 6 animals [2, 17]: 70 | Implantations per animal (mean ± SD) [2, 17]: 11.7 ± 6.4 | Absolute implantations number of 6 animals [2, 18]: 66 | Implantations per animal (mean ± SD) [2, 18]: 11 ± 5.5 | Absolute implantations number of 6 animals [2, 19]: 54* | Implantations per animal (mean ± SD) [2, 19]: 10.8 ± 4.4 | Absolute implantations number of 6 animals [2, 20]: 63* | Implantations per animal (mean ± SD) [2, 20]: 12.6 ± 3.4

IC50 [1]: > 50 nM
Structure (SMILES): COCCNC(=O)c1ccc2nn(CC3CCN(C(=O)c4ccc(Oc5ccc(C(F)(F)F)cn5)cc4)CC3)cc2c1C [Example E161, N-(2-methoxyethyl)-4-methyl-2-{[1-(4-{[5-(trifluoromethyl)pyridin-2-yl]oxy}benzoyl)piperidin-4-yl]methyl}-2H-indazole-5-carboxamide]
Absolute implantations number of 6 animals [2, 9]: 69 | Implantations per animal (mean ± SD) [2, 9]: 11.5 ± 3.1 | Absolute implantations number of 6 animals [2, 21]: 55 | Implantations per animal (mean ± SD) [2, 21]: 9.0 ± 3.4

IC50 [1]: > 50 nM
Structure (SMILES): Cc1c(C(=O)NCC(F)(F)F)ccc2nn(CC3CCN(C(=O)c4ccc(Oc5cccc(C(F)(F)F)c5)cc4)CC3)cc12 [Example E132, 4-methyl-N-(2,2,2-trifluoroethyl)-2-[(1-{4-[3-(trifluoromethyl)phenoxy]benzoyl}-piperidin-4-yl)methyl]-2H-indazole-5-carboxamide]

IC50 [1]: > 50 nM
Structure (SMILES): Cc1c(C(=O)NCCOC(C)C)ccc2nn(CC3CCN(C(=O)c4ccc(Oc5ccc(F)cc5)cc4)CC3)cc12 [Example E73, 2-({1-[4-(4-fluorophenoxy)benzoyl]piperidin-4-yl}methyl)-N-(2-isopropoxyethyl)-4-methyl-2H-indazole-5-carboxamide]

IC50 [1]: > 50 nM
Structure (SMILES): COCCNC(=O)c1ccc2nn(CC3CCN(C(=O)c4ccc(-c5ccccc5OC(F)(F)F)cc4F)CC3)cc2c1C [Example E44, 2-[(1-{[3-fluoro-2′-(trifluoromethoxy)biphenyl-4-yl]carbonyl}piperidin-4-yl)methyl]-N-(2-methoxyethyl)-4-methyl-2H-indazole-5-carboxamide]

IC50 [1]: > 50 nM
Structure (SMILES): COCCNC(=O)c1ccc2nn(CC3CCN(C(=O)c4ccc(-c5ccc(OC)cc5F)cc4F)CC3)cc2c1C [Example E177, 2-({1-[(2′,3-difluoro-4′-methoxybiphenyl-4-yl)carbonyl]piperidin-4-yl}methyl)-N-(2-methoxyethyl)-4-methyl-2H-indazole-5-carboxamide]

IC50 [1]: > 50 nM
Structure (SMILES): COCCNC(=O)c1ccc2nn(CC3CCN(C(=O)c4ccc(OC)cc4)CC3)cc2c1C [Example E20, 2-{[1-(4-methoxybenzoyl)piperidin-4-yl]methyl}-N-(2-methoxyethyl)-4-methyl-2H-indazole-5-carboxamide]

IC50 [1]: > 50 nM
Structure (SMILES): COCCNC(=O)c1ccc2nn(CC3CCN(C(=O)c4ccc(C)cc4F)CC3)cc2c1C [Example E9, 2-{[1-(2-fluoro-4-methylbenzoyl)piperidin-4-yl]methyl}-N-(2-methoxyethyl)-4-methyl-2H-indazole-5-carboxamide]

IC50 [1]: > 50 nM
Structure (SMILES): COCCNC(=O)c1ccc2nn(CC3CCN(C(=O)c4ccc(-c5ccc(F)cc5OC)cc4)CC3)cc2c1C [Example E193, 2-({1-[(4′-fluoro-2′-methoxybiphenyl-4-yl)carbonyl]piperidin-4-yl}methyl)-N-(2-methoxyethyl)-4-methyl-2H-indazole-5-carboxamide]

IC50 [1]: > 50 nM
Structure (SMILES): Cc1c(C(=O)NCCOCC(F)(F)F)ccc2nn(CC3CCN(C(=O)c4ccc(-c5ccc(F)cc5)cc4)CC3)cc12 [Example E69, 2-({1-[(4′-fluorobiphenyl-4-yl)carbonyl]piperidin-4-yl}methyl)-4-methyl-N-[2-(2,2,2-trifluoroethoxy)ethyl]-2H-indazole-5-carboxamide]

IC50 [1]: > 50 nM
Structure (SMILES): Cc1c(C(=O)NCCOC(F)(F)F)ccc2nn(CC3CN(C(=O)c4ccc(Cl)cc4)C3)cc12 [Example E105, 2-{[1-(4-chlorobenzoyl)azetidin-3-yl]methyl}-4-methyl-N-[2-(trifluoromethoxy)ethyl]-2H-indazole-5-carboxamide]

IC50 [1]: > 50 nM
Structure (SMILES): Cc1ccc(C(=O)N2CCC(Cn3cc4c(C)c(C(=O)NCCOCC(F)(F)F)ccc4n3)CC2)cc1 [Example E66, 4-methyl-2-{[1-(4-methylbenzoyl)piperidin-4-yl]methyl}-N-[2-(2,2,2-trifluoroethoxy)-ethyl]-2H-indazole-5-carboxamide]

IC50 [1]: > 50 nM
Structure (SMILES): COCCNC(=O)c1ccc2nn(CC3CCN(C(=O)c4ccc(-c5cccnc5)c(C)c4)CC3)cc2c1C [Example E205, N-(2-methoxyethyl)-4-methyl-2-({1-[3-methyl-4-(3-pyridyl)benzoyl]piperidin-4-yl}-methyl)-2H-indazole-5-carboxamide]

IC50 [1]: > 50 nM
Structure (SMILES): COCCNC(=O)c1ccc2nn(CC3CCN(C(=O)c4ccc(-n5cccn5)cc4)CC3)cc2c1C [Example E36, N-(2-methoxyethyl)-4-methyl-2-({1-[4-(1H-pyrazol-1-yl)benzoyl]piperidin-4-yl}-methyl)-2H-indazole-5-carboxamide]

IC50 [1]: > 50 nM
Structure (SMILES): Cc1c(C(=O)NCCOC2CC2)ccc2nn(CC3CN(C(=O)c4ccc(OC(F)(F)F)cc4)C3)cc12 [Example E100, N-[2-(cyclopropyloxy)ethyl]-4-methyl-2-({1-[4-(trifluoromethoxy)benzoyl]azetidin-3-yl}methyl)-2H-indazole-5-carboxamide]

IC50 [1]: > 50 nM
Structure (SMILES): COCCNC(=O)c1ccc2nn(CC3CCN(C(=O)c4ccc(-c5ccc(OC)nc5)cc4)CC3)cc2c1C [Example E188, N-(2-methoxyethyl)-2-({1-[4-(6-methoxypyridin-3-yl)benzoyl]piperidin-4-yl}methyl)-4-methyl-2H-indazole-5-carboxamide]
